Reference: ChEMBL document CHEMBL1201862, “PubChem BioAssay data set” (2004)
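Five concentrations, 48 hours, 96-well plates. GI50 = concentration required for 50% inhibition of growth.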 Calls of active or inactive are those of the source. No stated cut-off is given here; in the data, active = GI50 up to about 1.1 µM and inactive = higher.

Key:
Assay in all cases: NCI anticancer screen, dose series, 48 h
PC-3 = tested on: PC-3
A549 = tested on: A549
ACHN = tested on: ACHN
HOP-92 = tested on: HOP-92
Hs-578T = tested on: Hs-578T
T47D = tested on: T47D
RPMI-8226 = tested on: RPMI-8226
RXF 393 = tested on: RXF 393
SK-MEL-5 = tested on: SK-MEL-5
A498 = tested on: A498
NCI-H23 = tested on: NCI-H23
SK-MEL-2 = tested on: SK-MEL-2
TK-10 = tested on: TK-10
MDA-MB-435 = tested on: MDA-MB-435
UACC-257 = tested on: UACC-257
NCI-H522 = tested on: NCI-H522
786-0 = tested on: 786-0
EKVX = tested on: EKVX
COLO 205 = tested on: COLO 205
Malme-3M = tested on: Malme-3M

Measured: GI50

C=CC(c1ccccc1)C1(O)c2cccc(O)c2C(=O)c2c(O)cccc21 (centres undefined)
inactive: PC-3 13.9 µM | A549 14.7 µM | ACHN 17.8 µM | HOP-92 15.9 µM | Hs-578T 15.8 µM | T47D 16.9 µM | RPMI-8226 18.5 µM | RXF 393 14.2 µM | SK-MEL-5 17.3 µM | A498 19.6 µM | NCI-H23 13.4 µM | SK-MEL-2 12.4 µM | TK-10 19.2 µM | MDA-MB-435 4.01 µM | UACC-257 17.8 µM | NCI-H522 11.7 µM | 786-0 17.4 µM | EKVX 16.3 µM

O=c1[nH]nc(Nc2ccccc2)c2nnn(Cc3ccccc3)c12
inactive: PC-3 > 100 µM | A549 > 100 µM | ACHN > 100 µM | HOP-92 57 µM | Hs-578T 17.6 µM | T47D > 100 µM | RXF 393 > 100 µM | SK-MEL-5 > 100 µM | A498 > 100 µM | NCI-H23 > 100 µM | SK-MEL-2 > 100 µM | TK-10 > 100 µM | MDA-MB-435 > 100 µM | UACC-257 > 100 µM | COLO 205 > 100 µM | NCI-H522 > 100 µM | 786-0 25.3 µM | EKVX > 100 µM

CCN1C2=NCCN2S(=O)(=O)c2ccccc21
inactive: PC-3 > 100 µM | A549 > 100 µM | ACHN > 100 µM | HOP-92 > 100 µM | Hs-578T > 100 µM | T47D > 100 µM | RXF 393 > 100 µM | SK-MEL-5 > 100 µM | A498 > 100 µM | NCI-H23 > 100 µM | SK-MEL-2 > 100 µM | TK-10 > 100 µM | MDA-MB-435 > 100 µM | UACC-257 > 100 µM | COLO 205 > 100 µM | NCI-H522 59 µM | 786-0 > 100 µM | EKVX > 100 µM

Cc1nc(-c2ccc(/N=C/c3ccc(N(CCOS(C)(=O)=O)CCOS(C)(=O)=O)cc3C)cc2)cs1
inactive: PC-3 20.9 µM | A549 11.3 µM | Malme-3M 28.9 µM | ACHN 3.82 µM | Hs-578T 88.3 µM | T47D 7.23 µM | RPMI-8226 17.8 µM | RXF 393 25.1 µM | SK-MEL-5 11.4 µM | A498 2.31 µM | NCI-H23 35.4 µM | SK-MEL-2 > 100 µM | TK-10 55.5 µM | MDA-MB-435 72.9 µM | UACC-257 22.8 µM | COLO 205 28.5 µM | NCI-H522 24.3 µM | 786-0 13.8 µM

CCCCCCCCCCCCCCCC(=O)OC(COC(C)=O)CO[PH](=O)O (centres undefined)
inactive: PC-3 30.5 µM | A549 19.5 µM | Malme-3M 34.8 µM | ACHN 27.7 µM | HOP-92 12 µM | Hs-578T 11.8 µM | T47D 53.2 µM | RPMI-8226 78.2 µM | RXF 393 36 µM | SK-MEL-5 > 100 µM | A498 > 100 µM | SK-MEL-2 19.5 µM | TK-10 29 µM | MDA-MB-435 29.5 µM | UACC-257 34 µM | COLO 205 96.8 µM | NCI-H522 15.1 µM | 786-0 20.3 µM | EKVX 49.3 µM

Cc1cccc2c1C(=O)[C@@](C)([C@]1(C)Nc3cccc(C)c3C1=O)N2
inactive: PC-3 38.7 µM | A549 > 100 µM | Malme-3M > 100 µM | ACHN > 100 µM | Hs-578T > 100 µM | T47D > 100 µM | RPMI-8226 11 µM | RXF 393 > 100 µM | SK-MEL-5 96.6 µM | A498 > 100 µM | NCI-H23 > 100 µM | SK-MEL-2 > 100 µM | MDA-MB-435 31.1 µM | UACC-257 > 100 µM | COLO 205 > 100 µM | NCI-H522 > 100 µM | 786-0 > 100 µM | EKVX > 100 µM

O=C1/C(=C/c2ccc(Br)s2)NC(=S)N1CN1CCOCC1
inactive: PC-3 78.9 µM | Malme-3M > 100 µM | ACHN 48 µM | Hs-578T 65.3 µM | T47D 49.5 µM | RPMI-8226 16.7 µM | RXF 393 21.3 µM | SK-MEL-5 50 µM | A498 35.9 µM | NCI-H23 36.3 µM | SK-MEL-2 71.9 µM | TK-10 50.6 µM | MDA-MB-435 56.9 µM | UACC-257 66.8 µM | COLO 205 33 µM | NCI-H522 64 µM | 786-0 43 µM | EKVX 8.38 µM

COC(NC(N)=O)C(=O)O (centres undefined)
inactive: PC-3 > 100 µM | A549 > 100 µM | Malme-3M > 100 µM | ACHN > 100 µM | HOP-92 > 100 µM | Hs-578T > 100 µM | T47D > 100 µM | RPMI-8226 > 100 µM | RXF 393 > 100 µM | SK-MEL-5 > 100 µM | A498 > 100 µM | NCI-H23 > 100 µM | SK-MEL-2 > 100 µM | TK-10 > 100 µM | MDA-MB-435 > 100 µM | UACC-257 > 100 µM | COLO 205 > 100 µM | NCI-H522 > 100 µM | 786-0 > 100 µM | EKVX > 100 µM

CSc1nc(SC)c2c(C)cn(Cc3ccccc3)c2n1
inactive: PC-3 > 100 µM | A549 > 100 µM | Malme-3M > 100 µM | ACHN > 100 µM | HOP-92 20.6 µM | Hs-578T > 100 µM | T47D 33.9 µM | RPMI-8226 85.9 µM | SK-MEL-5 > 100 µM | A498 > 100 µM | NCI-H23 > 100 µM | SK-MEL-2 > 100 µM | TK-10 > 100 µM | MDA-MB-435 33.2 µM | COLO 205 > 100 µM | NCI-H522 98.4 µM | 786-0 > 100 µM | EKVX > 100 µM

COc1cc2nc(-c3cccs3)nc(Nc3cccc([N+](=O)[O-])c3)c2cc1OC
inactive: PC-3 19.6 µM | A549 21.1 µM | Malme-3M 18.9 µM | ACHN 15.7 µM | Hs-578T 26.9 µM | T47D 16.4 µM | RPMI-8226 28.1 µM | RXF 393 25.9 µM | SK-MEL-5 29.2 µM | A498 > 100 µM | NCI-H23 11 µM | SK-MEL-2 20.7 µM | TK-10 20.8 µM | MDA-MB-435 17 µM | UACC-257 21.6 µM | COLO 205 19.3 µM | NCI-H522 17.6 µM | 786-0 21.3 µM | EKVX 15.3 µM

O=C1/C(=C\c2ccco2)Oc2ccccc21
inactive: PC-3 > 100 µM | A549 > 100 µM | ACHN > 100 µM | HOP-92 > 100 µM | Hs-578T > 100 µM | T47D 72.3 µM | RPMI-8226 89.5 µM | RXF 393 > 100 µM | SK-MEL-5 > 100 µM | A498 > 100 µM | NCI-H23 > 100 µM | SK-MEL-2 > 100 µM | TK-10 > 100 µM | MDA-MB-435 > 100 µM | UACC-257 > 100 µM | COLO 205 > 100 µM | NCI-H522 > 100 µM | 786-0 > 100 µM | EKVX 42.9 µM

COc1ccc2c(c1)O[C@@H]1[C@@H](OC3OC(CO)C(O)C(O)C3O)Oc3cc(OC)c(OC)cc3[C@]1(O)C2=O (some centres undefined)
inactive: PC-3 > 100 µM | A549 > 100 µM | Malme-3M > 100 µM | ACHN > 100 µM | HOP-92 > 100 µM | Hs-578T > 100 µM | T47D > 100 µM | RPMI-8226 > 100 µM | RXF 393 > 100 µM | SK-MEL-5 > 100 µM | A498 > 100 µM | NCI-H23 > 100 µM | SK-MEL-2 > 100 µM | TK-10 > 100 µM | MDA-MB-435 > 100 µM | UACC-257 > 100 µM | COLO 205 > 100 µM | NCI-H522 > 100 µM | 786-0 > 100 µM | EKVX > 100 µM

Cc1ccc(S(=O)(=O)/N=C2/N(C)CCCS2(=O)=O)cc1
inactive: PC-3 > 100 µM | A549 > 100 µM | ACHN > 100 µM | HOP-92 > 100 µM | Hs-578T > 100 µM | T47D > 100 µM | RPMI-8226 > 100 µM | RXF 393 > 100 µM | SK-MEL-5 > 100 µM | A498 > 100 µM | NCI-H23 > 100 µM | SK-MEL-2 > 100 µM | TK-10 > 100 µM | MDA-MB-435 > 100 µM | UACC-257 > 100 µM | COLO 205 > 100 µM | NCI-H522 > 100 µM | 786-0 > 100 µM | EKVX > 100 µM

O=C(CN1CCN(c2ccccn2)CC1)N1CCCn2c1nc1ccccc1c2=O
inactive: PC-3 > 100 µM | A549 > 100 µM | Malme-3M > 100 µM | ACHN > 100 µM | HOP-92 > 100 µM | Hs-578T > 100 µM | T47D > 100 µM | RPMI-8226 > 100 µM | SK-MEL-5 > 100 µM | A498 > 100 µM | NCI-H23 > 100 µM | SK-MEL-2 > 100 µM | TK-10 > 100 µM | MDA-MB-435 > 100 µM | UACC-257 > 100 µM | COLO 205 > 100 µM | NCI-H522 > 100 µM | 786-0 > 100 µM | EKVX > 100 µM

O=c1c(C(c2ccc(-c3ccccc3)cc2)c2c(O)oc3ccccc3c2=O)c(O)oc2ccccc12
inactive: PC-3 24.2 µM | Malme-3M 24.7 µM | ACHN 26.7 µM | HOP-92 19.1 µM | Hs-578T 24.4 µM | T47D 40 µM | RPMI-8226 25.9 µM | SK-MEL-5 28.7 µM | A498 31 µM | NCI-H23 24.8 µM | SK-MEL-2 22.5 µM | TK-10 51.9 µM | MDA-MB-435 22.8 µM | UACC-257 34.4 µM | COLO 205 34.6 µM | NCI-H522 24 µM | 786-0 26.9 µM | EKVX 46.6 µM
